From PubChem BioAssay (NCI) come the findings set out here.

Test systems include CAKI-1 renal; EKVX NSCLC; HS 578T breast; IGROV1 ovarian; NCI-H522 lung; OVCAR-3 ovarian; OVCAR-5 ovarian; OVCAR-8 ovarian; UACC-62 melanoma; UO-31 renal.
Holding throughout (assay): NCI tumour cell line growth inhibition, 48 h

Where “and” joins values, the source holds several entries; their conditions need not be identical. Identical values can stand only once.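 Interpolation was linear, between the two tested concentrations surrounding the appropriate level; five concentrations were tested over 48 hours in 96-well plates. GI50 is the concentration that inhibits growth by half. At the TGI there is no net growth.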

In the case of `O=C(OCc1ccc2cccc(O)c2n1)N1CCN(C(=O)c2cc3cc(F)ccc3[nH]2)CC1`, the GI50 in the test with CAKI-1 renal is 0.354 µM; with EKVX NSCLC, 1.4 µM; in the test with HS 578T breast it was 1.42 µM; in the test with IGROV1 ovarian it was 0.403 µM; with NCI-H522 lung, 1.02 µM; in the test with OVCAR-3 ovarian it was 0.46 µM. Moreover, the GI50 is 1.7 µM with OVCAR-5 ovarian, 1.01 µM in the test on OVCAR-8 ovarian, 1.17 µM in the test with UACC-62 melanoma and 0.358 µM in the test with UO-31 renal. Moreover, the TGI in the test with CAKI-1 renal was found to be 1.66 µM; in the test with EKVX NSCLC, 2.71 µM; with HS 578T breast, 5.72 µM; in the test with IGROV1 ovarian, 1.64 µM; in the test with NCI-H522 lung it was 2.47 µM; in the test with OVCAR-3 ovarian, 1.77 µM. Also, the TGI was determined as 3.16 µM with OVCAR-5 ovarian, 2.47 µM in the test with OVCAR-8 ovarian, 2.43 µM in the test on UACC-62 melanoma and 1.93 µM in the test on UO-31 renal.

With `Oc1[nH]c2ccccc2c1N=Nc1ccccc1Cl`, the TGI in the test on CAKI-1 renal was 61.2 µM; in the test on EKVX NSCLC, above 100 µM; in the test with HS 578T breast it was above 100 µM; in the test with IGROV1 ovarian, above 100 µM; in the test with NCI-H522 lung, above 100 µM; in the test with OVCAR-3 ovarian, above 93.8 µM. In addition, the TGI was above 100 µM in the test with OVCAR-5 ovarian, above 64.7 µM in the test with OVCAR-8 ovarian, above 100 µM in the test with UACC-62 melanoma and above 100 µM with UO-31 renal.

As for `O=c1n(CC2CO2)c(=O)n(CC2CO2)c(=O)n1CC1CO1` (stereo not drawn), the GI50 is 0.81 µM in the test with CAKI-1 renal; 21.6 µM in the test with HS 578T breast; 24.9 µM and 7.31 µM in the test with IGROV1 ovarian; 11.2 µM and 3.9 µM with NCI-H522 lung; 20.6 µM and 13.1 µM in the test on OVCAR-3 ovarian; 18.2 µM and 19.9 µM in the test on OVCAR-5 ovarian. Further, the GI50 is 25.3 µM and 12.9 µM in the test with OVCAR-8 ovarian; 5.58 µM in the test on UACC-62 melanoma; 21.1 µM and 6.42 µM with UO-31 renal. Moreover, the TGI was 52.1 µM and 64.9 µM with CAKI-1 renal; 175 µM in the test with EKVX NSCLC; 188 µM and > 100 µM in the test on HS 578T breast; 96 µM and > 100 µM with IGROV1 ovarian; 28 µM and 45.8 µM and 22.9 µM in the test on NCI-H522 lung; 108 µM and 40.2 µM with OVCAR-3 ovarian. Besides, the TGI in the test with OVCAR-5 ovarian was 56 µM and 118 µM and 40.1 µM; in the test with OVCAR-8 ovarian, 148 µM and > 100 µM; with UACC-62 melanoma it was 41.9 µM and 75.5 µM; in the test on UO-31 renal it was 88.6 µM and 118 µM and > 100 µM.

Take `NC(=NCCCOc1ccc(Cl)cc1)Nc1ccc(C(F)(F)F)cc1`: the GI50 in the test with CAKI-1 renal was 2.48 µM; in the test on EKVX NSCLC it was 2.51 µM; in the test with HS 578T breast, 3.35 µM; in the test on IGROV1 ovarian, 1.47 µM; in the test with NCI-H522 lung, 1.75 µM; in the test with OVCAR-3 ovarian, 2.26 µM. Moreover, the GI50 was 2.67 µM in the test with OVCAR-5 ovarian, 2.18 µM with OVCAR-8 ovarian, 1.81 µM in the test with UACC-62 melanoma and 1.85 µM in the test with UO-31 renal. In addition, the TGI worked out at 9.03 µM in the test on CAKI-1 renal; 8.65 µM with EKVX NSCLC; 18.8 µM in the test on HS 578T breast; 4.12 µM in the test on IGROV1 ovarian; 4.41 µM with NCI-H522 lung; 6.14 µM with OVCAR-3 ovarian. For the same compound, the TGI with OVCAR-5 ovarian turned out to be 13.7 µM; in the test with OVCAR-8 ovarian, 6.05 µM; in the test on UACC-62 melanoma, 3.61 µM; with UO-31 renal it was 7.37 µM.

As for `CC(=O)OC1Oc2ccccc2-c2oc(=O)c(-c3cc(=O)oc4cc(O)ccc34)cc21` (stereo not drawn), the GI50 with CAKI-1 renal is 21.7 µM; in the test on EKVX NSCLC it was 17.5 µM; in the test on HS 578T breast, 17.9 µM; in the test with IGROV1 ovarian it was 20.8 µM; with NCI-H522 lung it was 16.9 µM; in the test on OVCAR-3 ovarian, 13.8 µM. The GI50 is 26.6 µM in the test on OVCAR-5 ovarian, 19.8 µM in the test on OVCAR-8 ovarian, 18.8 µM in the test on UACC-62 melanoma and 22.2 µM in the test with UO-31 renal. Also, the TGI was 83.7 µM in the test with CAKI-1 renal; 49.3 µM with EKVX NSCLC; 52 µM in the test with HS 578T breast; 83.6 µM with IGROV1 ovarian; 43 µM with NCI-H522 lung; 41.4 µM in the test on OVCAR-3 ovarian. Moreover, the TGI is 57.2 µM in the test with OVCAR-5 ovarian, above 100 µM in the test on OVCAR-8 ovarian, 39 µM in the test on UACC-62 melanoma and 58.9 µM in the test with UO-31 renal.

With `CC(SC(C)C(=O)N/N=C/c1cccc(Cl)c1)C(=O)N/N=C\c1cccc(Cl)c1` (stereo not drawn), the GI50 in the test with CAKI-1 renal is 61.4 µM; in the test with EKVX NSCLC, 13.3 µM; in the test on HS 578T breast, 5.62 µM; in the test with IGROV1 ovarian, 18.4 µM; in the test with NCI-H522 lung it was 3.57 µM; in the test with OVCAR-3 ovarian, 2.03 µM. The GI50 was 17.4 µM with OVCAR-5 ovarian, 4.78 µM in the test on OVCAR-8 ovarian, 20.3 µM with UACC-62 melanoma and 14.8 µM with UO-31 renal. Further, the TGI in the test with CAKI-1 renal is above 100 µM; with EKVX NSCLC it was 59.7 µM; in the test with HS 578T breast, 25.4 µM; in the test on IGROV1 ovarian, 69.3 µM; in the test on NCI-H522 lung, 11.6 µM; in the test with OVCAR-3 ovarian it was 3.81 µM. The TGI with OVCAR-5 ovarian is 44.2 µM; with OVCAR-8 ovarian, 23.2 µM; with UACC-62 melanoma, 46.2 µM; in the test on UO-31 renal, 94.4 µM.

As for `Cc1c2cccnc2c(C)c2c1c1cc(CO)ccc1n2C`, the GI50 is 2.06 µM with CAKI-1 renal; 1.4 µM with EKVX NSCLC; 3.38 µM in the test on HS 578T breast; 0.579 µM in the test on IGROV1 ovarian; 1.98 µM in the test with NCI-H522 lung; 2.38 µM in the test with OVCAR-3 ovarian. Further, the GI50 in the test on OVCAR-5 ovarian was 0.618 µM; with OVCAR-8 ovarian, 1.55 µM; in the test on UACC-62 melanoma, 1.41 µM; with UO-31 renal, 1.41 µM. The TGI in the test with CAKI-1 renal is 10.5 µM; in the test on EKVX NSCLC, 9.86 µM; with HS 578T breast it was 34.5 µM; with IGROV1 ovarian, 9.34 µM; in the test with NCI-H522 lung, 6.53 µM; in the test with OVCAR-5 ovarian, 8.78 µM. In addition, the results for the TGI in the test with OVCAR-8 ovarian, in the test on UACC-62 melanoma and with UO-31 renal were 18.1 µM, 4.56 µM and 10.5 µM, respectively.
